In patent US20140179664A1, “Heterocyclyl Pyrimidine Analogues As JAK Inhibitors” (Cellzome Limited, priority 2011, published 2014):

Tests used:
Type in all cases: binding
TYK2 = target: T1, TYK2 (Homo sapiens, UniProt P29597); assay: Kinobeads assay, TYK2; settings: mixed Molt4/Ramos lysate, read-out: Inhibition values (IC50) TYK2
T1 construct: endogenous in cells; host or cells: Molt4 (ATCC CRL-1582) and Ramos (ATCC CRL-1596), mixed lysate 1:2
Summary of the method: (§1)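 Mixed Molt4/Ramos lysate (1:2, 10 mg/mL protein) was incubated 3 h in the cold with the immobilized aminopyrido-pyrimidine affinity matrix and compound, 9-step 1:3 dilutions. Bead-bound kinases were eluted and quantified by antibody dot blot with infrared detection. IC50s are from dose-response curves.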

JAK3 = target: T2, JAK3 (Homo sapiens, UniProt P52333); assay: Kinobeads assay, JAK3; settings: mixed Molt4/Ramos lysate, read-out: Inhibition values (IC50) JAK3
T2 construct: endogenous in cells; host or cells: Molt4 (ATCC CRL-1582) and Ramos (ATCC CRL-1596), mixed lysate 1:2
T2 sequence (P52333 1-1124): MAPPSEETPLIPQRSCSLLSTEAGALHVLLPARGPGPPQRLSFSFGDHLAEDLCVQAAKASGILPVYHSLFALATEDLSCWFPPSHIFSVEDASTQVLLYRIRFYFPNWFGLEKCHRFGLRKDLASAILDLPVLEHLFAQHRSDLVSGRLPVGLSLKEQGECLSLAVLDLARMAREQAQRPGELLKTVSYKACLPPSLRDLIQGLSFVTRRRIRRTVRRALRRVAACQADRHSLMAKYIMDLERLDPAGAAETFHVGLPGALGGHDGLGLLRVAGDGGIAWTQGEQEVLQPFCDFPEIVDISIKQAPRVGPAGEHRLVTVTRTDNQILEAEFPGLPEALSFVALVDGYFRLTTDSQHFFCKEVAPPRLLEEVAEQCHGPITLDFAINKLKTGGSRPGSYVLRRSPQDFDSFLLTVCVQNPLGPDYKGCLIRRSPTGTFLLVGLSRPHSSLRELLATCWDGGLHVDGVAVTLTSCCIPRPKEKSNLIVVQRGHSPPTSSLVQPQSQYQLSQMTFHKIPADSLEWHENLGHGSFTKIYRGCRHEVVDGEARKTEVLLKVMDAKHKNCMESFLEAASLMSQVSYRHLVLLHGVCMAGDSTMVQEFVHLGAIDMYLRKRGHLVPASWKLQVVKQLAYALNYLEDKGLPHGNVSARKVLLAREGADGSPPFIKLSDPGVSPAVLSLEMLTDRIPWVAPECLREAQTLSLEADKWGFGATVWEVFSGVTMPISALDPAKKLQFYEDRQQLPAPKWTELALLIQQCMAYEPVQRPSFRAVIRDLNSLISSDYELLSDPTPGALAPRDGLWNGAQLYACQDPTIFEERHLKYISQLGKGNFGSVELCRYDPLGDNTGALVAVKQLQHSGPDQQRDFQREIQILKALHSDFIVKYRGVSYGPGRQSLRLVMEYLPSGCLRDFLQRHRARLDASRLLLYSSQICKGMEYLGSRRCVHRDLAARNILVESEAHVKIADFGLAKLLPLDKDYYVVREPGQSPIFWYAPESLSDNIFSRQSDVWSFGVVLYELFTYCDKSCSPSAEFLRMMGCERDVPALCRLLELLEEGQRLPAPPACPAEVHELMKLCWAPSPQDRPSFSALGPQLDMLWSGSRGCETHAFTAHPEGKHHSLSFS
Method: The compounds of the present invention as described in the previous examples were tested in a Kinobeads™ assay as described for ZAP-70 (WO-A 2007/137867). Briefly, test compounds (at various concentrations) and the affinity matrix with the immobilized aminopyrido-pyrimidine ligand 24 were added to cell lysate aliquots and allowed to bind to the proteins in the lysate sample. After the incubation time the beads with captured proteins were separated from the lysate. Bound proteins were then eluted and the presence of JAK1, JAK2, JAK3 and TYK2 was detected and quantified using specific antibodies in a dot blot procedure and the Odyssey infrared detection system. Dose response curves for individual kinases were generated and IC50 values calculated. Kinobeads™ assays for ZAP-70 (WO-A 2007/137867) and for kinase selectivity profiling (WO-A 2006/134056) have been previously described.
The affinity matrix was washed two times with 15 mL of lx DP buffer containing 0.2% NP40 (IGEPAL® CA-630, Sigma, #13021) and then resuspended in 1×DP buffer containing 0.2% NP40 (3% beads slurry).
5×DP buffer: 250 mM Tris-HCl pH 7.4, 25% Glycerol, 7.5 mM MgCl2, 750 mM NaCl, 5 mM Na3VO4; filter the 5×DP buffer through a 0.22 μm filter and store in aliquots at −80° C. The 5×DP buffer is diluted with H2O to 1×DP buffer containing 1 mM DTT and 25 mM NaF.
Stock solutions of test compounds were prepared in DMSO. In a 96 well plate […] solution of diluted test compounds at 5 mM in DMSO were prepared. Starting with this solution a 1:3 dilution series (9 steps) was prepared. For control experiments (no test compound) a buffer containing 2% DMSO was used.
Molt4 cells (ATCC catalogue number CRL-1582) and Ramos cells (ATCC catalogue number CRL-1596) were grown in 1 L Spinner flasks (Integra Biosciences, #182101) in suspension in RPMI 1640 medium (Invitrogen, #21875-034) supplemented with 10% Fetal Bovine Serum (Invitrogen) at a density between 0.15×10^6 and 1.2×10^6 cells/mL. Cells were harvested by centrifugation, washed once with 1×PBS buffer (Invitrogen, #14190-094) and cell pellets were frozen in liquid nitrogen and subsequently stored at −80° C. Cells were homogenized in a Potter S homogenizer in lysis buffer: 50 mM Tris-HCl, 0.8% NP40, 5% glycerol, 150 mM NaCl, 1.5 mM MgCl2, 25 mM NaF, 1 mM sodium vanadate, 1 mM DTT, pH 7.5. One complete EDTA-free tablet (protease inhibitor cocktail, Roche Diagnostics, 1873580) per 25 mL buffer was added. The material was dounced 10 times using a mechanized POTTER S, transferred to 50 mL falcon tubes, incubated for 30 minutes on ice and spun down for 10 minutes at 20,000 g at 4° C. (10,000 rpm in Sorvall SLA600, precooled). The supernatant was transferred to an ultracentrifuge (UZ)-polycarbonate tube (Beckmann, 355654) and spun for 1 hour at 100.000 g at 4° C. (33.500 rpm in Ti50.2, precooled). The supernatant was transferred again to a fresh 50 mL falcon tube, the protein concentration was determined by a Bradford assay (BioRad) and samples containing 50 mg of protein per aliquot were prepared. The samples were immediately used for experiments or frozen in liquid nitrogen and stored frozen at −80° C.
Cell lysate (approximately 50 mg protein per plate) was thawed in a water bath at room temperature and then stored on ice. To the thawed cell lysate 1×DP 0.8% NP40 buffer containing protease inhibitors (1 tablet for 25 mL buffer; EDTA-free protease inhibitor cocktail; Roche Diagnostics 1873580) was added in order to reach a final protein concentration of 10 mg/mL total protein. The diluted cell lysate was stored on ice. Mixed Molt4/Ramos lysate was prepared by combining one volume of Molt4 lysate and two volumes of Ramos lysate (ratio 1:2).
To a 96 well filter plate (Multiscreen HTS, BV Filter Plates, Millipore #MSBVN1250) were added per well: 100 μL affinity matrix (3% beads slurry), […], of compound solution, and 50 μL of diluted lysate. […]

JAK2 = target: T3, JAK2 (Homo sapiens, UniProt O60674); assay: Kinobeads assay, JAK2; settings: mixed Molt4/Ramos lysate, read-out: Inhibition values (IC50) JAK2
T3 construct: endogenous in cells; host or cells: Molt4 (ATCC CRL-1582) and Ramos (ATCC CRL-1596), mixed lysate 1:2
Summary of the method: as §1

T3 sequence (O60674 whole entry): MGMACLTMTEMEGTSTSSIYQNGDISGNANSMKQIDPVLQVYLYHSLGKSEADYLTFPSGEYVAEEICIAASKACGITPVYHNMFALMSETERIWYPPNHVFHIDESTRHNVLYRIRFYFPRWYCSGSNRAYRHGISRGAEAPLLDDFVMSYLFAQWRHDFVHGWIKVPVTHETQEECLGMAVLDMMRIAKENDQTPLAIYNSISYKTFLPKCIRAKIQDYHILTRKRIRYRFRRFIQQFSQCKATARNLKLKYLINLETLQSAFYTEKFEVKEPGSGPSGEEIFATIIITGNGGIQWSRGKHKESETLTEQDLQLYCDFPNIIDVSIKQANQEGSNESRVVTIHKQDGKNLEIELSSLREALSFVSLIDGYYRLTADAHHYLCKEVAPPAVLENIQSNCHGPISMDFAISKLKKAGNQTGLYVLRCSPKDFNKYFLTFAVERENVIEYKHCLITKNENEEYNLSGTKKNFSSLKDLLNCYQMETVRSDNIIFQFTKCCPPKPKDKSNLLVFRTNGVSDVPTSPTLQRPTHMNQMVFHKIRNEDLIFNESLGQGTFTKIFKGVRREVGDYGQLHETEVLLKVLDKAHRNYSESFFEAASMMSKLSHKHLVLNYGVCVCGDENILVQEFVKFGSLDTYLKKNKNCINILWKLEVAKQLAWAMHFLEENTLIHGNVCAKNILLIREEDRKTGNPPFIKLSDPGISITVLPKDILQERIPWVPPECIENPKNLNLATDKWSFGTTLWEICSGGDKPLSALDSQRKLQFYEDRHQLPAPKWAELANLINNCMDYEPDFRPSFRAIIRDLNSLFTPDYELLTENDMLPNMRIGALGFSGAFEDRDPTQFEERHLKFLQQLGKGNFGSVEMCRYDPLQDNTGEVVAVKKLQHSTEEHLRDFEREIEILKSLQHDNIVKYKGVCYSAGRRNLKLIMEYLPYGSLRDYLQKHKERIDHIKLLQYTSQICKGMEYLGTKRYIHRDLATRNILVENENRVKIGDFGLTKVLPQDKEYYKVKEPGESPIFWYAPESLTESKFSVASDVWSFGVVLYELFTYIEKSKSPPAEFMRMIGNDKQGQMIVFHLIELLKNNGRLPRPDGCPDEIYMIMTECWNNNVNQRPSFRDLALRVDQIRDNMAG
T1 sequence (P29597 whole entry): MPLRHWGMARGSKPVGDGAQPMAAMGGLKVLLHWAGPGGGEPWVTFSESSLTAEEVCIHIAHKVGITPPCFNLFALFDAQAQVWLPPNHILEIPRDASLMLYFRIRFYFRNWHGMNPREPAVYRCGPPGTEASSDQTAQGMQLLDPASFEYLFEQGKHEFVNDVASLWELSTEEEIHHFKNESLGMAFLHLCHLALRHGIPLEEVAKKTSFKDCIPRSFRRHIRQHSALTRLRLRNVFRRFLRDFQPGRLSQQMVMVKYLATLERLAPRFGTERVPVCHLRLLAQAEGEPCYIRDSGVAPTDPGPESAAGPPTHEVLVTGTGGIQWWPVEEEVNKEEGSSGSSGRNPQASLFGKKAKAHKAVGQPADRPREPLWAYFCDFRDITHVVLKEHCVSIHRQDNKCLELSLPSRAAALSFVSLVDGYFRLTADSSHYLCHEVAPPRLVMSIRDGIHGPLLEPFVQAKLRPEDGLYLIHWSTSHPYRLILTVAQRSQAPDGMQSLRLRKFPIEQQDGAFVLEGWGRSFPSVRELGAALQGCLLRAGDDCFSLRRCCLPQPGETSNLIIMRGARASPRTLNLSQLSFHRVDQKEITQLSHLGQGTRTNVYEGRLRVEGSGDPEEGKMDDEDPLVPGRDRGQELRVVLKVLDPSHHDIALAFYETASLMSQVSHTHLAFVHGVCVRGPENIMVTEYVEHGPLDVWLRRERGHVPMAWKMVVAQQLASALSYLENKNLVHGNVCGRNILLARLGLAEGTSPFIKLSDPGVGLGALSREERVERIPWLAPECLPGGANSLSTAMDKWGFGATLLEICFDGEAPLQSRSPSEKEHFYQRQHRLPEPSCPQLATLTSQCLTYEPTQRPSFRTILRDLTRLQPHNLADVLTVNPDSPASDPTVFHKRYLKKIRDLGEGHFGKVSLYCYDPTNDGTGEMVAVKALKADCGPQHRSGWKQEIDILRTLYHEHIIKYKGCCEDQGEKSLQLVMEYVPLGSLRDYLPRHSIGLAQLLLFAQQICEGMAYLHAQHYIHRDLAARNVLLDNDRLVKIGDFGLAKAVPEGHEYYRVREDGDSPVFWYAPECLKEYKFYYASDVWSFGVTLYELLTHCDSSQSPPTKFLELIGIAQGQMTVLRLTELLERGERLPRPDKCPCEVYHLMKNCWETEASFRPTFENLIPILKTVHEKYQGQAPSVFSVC

SMILES	IC50 (TYK2) [nM]	IC50 (JAK3) [nM]	IC50 (JAK2) [µM]
Cn1cc(Nc2ncc(Cl)c(N[C@H](C(=O)NC3CCCC3)c3ccccc3)n2)cn1 [Compound 59]	≥ 10000	100 to 1000	≥ 10
O=C([C@@H](Nc1nc(Nc2cnn(CCO)c2)ncc1Cl)c1ccccc1)N1CCCC1 [Compound 35]	1000 to 10000	100 to 1000	1 to 10
NC(=O)Cn1cc(Nc2ncc(Cl)c(N[C@H](CO)c3ccccc3F)n2)cn1 [Compound 78]	100 to 1000	< 100	1 to 10
CC(C)NC(=O)Cn1cc(Nc2ncc(Cl)c(N[C@H](CO)c3ccccc3)n2)cn1 [Compound 67]	100 to 1000	< 100	1 to 10
O=C([C@@H](Nc1nc(Nc2cnn(CCO)c2)ncc1Cl)c1ccccc1)N1CCCCC1 [Compound 51]	≥ 10000	100 to 1000	≥ 10
Cn1cc(Nc2ncc(Cl)c(NC(CO)c3ccccc3)n2)cn1 (stereo not drawn) [Compound 1]	1000 to 10000	< 100	≥ 10
COC(=O)C(Nc1nc(Nc2cnn(CCO)c2)ncc1Cl)c1ccccc1 (stereo not drawn) [Compound 15]	1000 to 10000	100 to 1000	≥ 10
OC[C@@H](Nc1nc(Nc2cn[nH]c2)ncc1Cl)c1ccccc1 [Compound 75]	1000 to 10000	< 100	1 to 10
COC(=O)C(Nc1nc(Nc2cnn(C)c2)ncc1Cl)c1ccccc1 (stereo not drawn) [Compound 16]	1000 to 10000	100 to 1000	≥ 10
CNC(=O)[C@@H](Nc1nc(Nc2cnn(C)c2)ncc1Cl)c1ccccc1 [Compound 20]	1000 to 10000	100 to 1000	≥ 10
CC(C)(O)Cn1cc(Nc2ncc(Cl)c(NC(CO)c3ccccc3F)n2)cn1 (stereo not drawn) [Compound 57]	1000 to 10000	< 100	≥ 10
OCCn1ccc(Nc2ncc(Cl)c(NC(CO)c3c(F)cccc3F)n2)n1 (stereo not drawn) [Compound 45]	1000 to 10000	100 to 1000	≥ 10
OCCn1cc(Nc2ncc(Cl)c(N[C@H](CO)c3ccccc3F)n2)cn1 [Compound 77]	100 to 1000	< 100	1 to 10
COCCNC(=O)[C@@H](Nc1nc(Nc2cnn(CCO)c2)ncc1Cl)c1ccccc1 [Compound 48]	1000 to 10000	< 100	1 to 10
Cn1cc(Nc2ncc(Cl)c(N[C@@H](CO)c3ccccc3)n2)cn1 [Compound 54]	1000 to 10000	1000 to 10000	≥ 10
Cn1ccc(Nc2ncc(Cl)c(N[C@H](CO)c3ccccc3)n2)n1 [Compound 11]	≥ 10000	100 to 1000	≥ 10

SMILES	IC50 (TYK2) [nM]	IC50 (JAK3) [nM]	IC50 (JAK2) [µM]
OCCn1cc(Nc2ncc(Cl)c(NC(CO)c3c(F)cccc3F)n2)cn1 (stereo not drawn) [Compound 43]	100 to 1000	< 100	1 to 10
NC(=O)Cn1cc(Nc2ncc(Cl)c(N[C@H](CO)c3ccccc3)n2)cn1 [Compound 56]	100 to 1000	< 100	1 to 10
NC(=O)Cn1cc(Nc2ncc(Cl)c(N[C@H](CO)c3ccccn3)n2)cn1 [Compound 81]	100 to 1000	< 100	1 to 10
Cn1cc(Nc2ncc(Cl)c(NC(C(=O)O)c3ccccc3)n2)cn1 (stereo not drawn) [Compound 18]	1000 to 10000	< 100	1 to 10
CC(O)Cn1cc(Nc2ncc(Cl)c(NC(CO)c3c(F)cccc3F)n2)cn1 (stereo not drawn) [Compound 42]	100 to 1000	< 100	1 to 10
COc1cccc([C@@H](CO)Nc2nc(Nc3cnn(CC(N)=O)c3)ncc2Cl)c1 [Compound 84]	1000 to 10000	< 100	≥ 10
CN(C)C(=O)[C@@H](Nc1nc(Nc2cnn(C)c2)ncc1Cl)c1ccccc1 [Compound 25]	≥ 10000	100 to 1000	≥ 10
OCCCn1cc(Nc2ncc(Cl)c(NC(CO)c3ccccc3F)n2)cn1 (stereo not drawn) [Compound 64]	1000 to 10000	< 100	1 to 10
O=C(NC1CCCC1)[C@@H](Nc1nc(Nc2cnn(CCO)c2)ncc1Cl)c1ccccc1 [Compound 60]	1000 to 10000	100 to 1000	≥ 10
Cn1cc(Nc2ncc(Cl)c(NC(CO)c3c(F)cccc3F)n2)cn1 (stereo not drawn) [Compound 44]	1000 to 10000	< 100	1 to 10
Cn1cc(Nc2ncc(Cl)c(NC(CO)c3ccccc3F)n2)cn1 (stereo not drawn) [Compound 37]	1000 to 10000	< 100	1 to 10
CNC(=O)Cn1cc(Nc2ncc(Cl)c(N[C@H](CO)c3cccnc3)n2)cn1 [Compound 170]	1000 to 10000	< 100	1 to 10
Cn1cc(Nc2ncc(Cl)c(NC(CO)c3cccc(Br)c3)n2)cn1 (stereo not drawn) [Compound 52]	1000 to 10000	100 to 1000	≥ 10
O=C(c1cc(Nc2ncc(Cl)c(N[C@H](CO)c3ccccc3)n2)c[nH]1)N1CCOCC1 [Compound 13]	100 to 1000	< 100	0.1 to 1
OCCn1cc(Nc2ncc(Cl)c(NC(CO)c3ccc(F)cc3)n2)cn1 (stereo not drawn) [Compound 72]	1000 to 10000	100 to 1000	≥ 10
